System: hangover symptoms
Assay: Testing of composition components on alcohol-induced (hangover) symptoms
Type: in vivo, human
Experimental: To test, various components of the compositions disclosed herein, individuals were selected to test the efficacy of various formulations. The scale employed during the testing of alcohol-induced symptoms was as follows: (a) no symptoms; (b) very mild symptoms; (c) mild symptoms; (d) moderate symptoms; (e) severe symptoms; and/or (f) very severe symptoms. […] The testing was carried out by a person of average size and build consuming standard alcoholic drinks (e.g., a beer) and the components below were consumed generally prior to consumption of alcohol. […]

[1] = man of average size, standard alcoholic drinks, taken prior to alcohol

## O=C1c2c(O)cc(O)cc2O[C@H](c2cc(O)c(O)c(O)c2)[C@H]1O [DHM, dihydromyricetin]
3 drinks, 300 mg DHM (without DHM: very mild symptoms)
  alcohol-induced symptoms: elimination of all symptoms
3 drinks, less than 300 mg DHM (without DHM: very mild symptoms)
  alcohol-induced symptoms: no reduction of symptoms
6 drinks, 300 mg DHM (without DHM: moderate symptoms)
  alcohol-induced symptoms: reduction to mild symptoms
6 drinks, 750 mg DHM (without DHM: moderate symptoms)
  alcohol-induced symptoms: reduction to very mild symptoms
6 drinks, 1200 mg DHM (without DHM: moderate symptoms)
  alcohol-induced symptoms: elimination of all symptoms
9 drinks, 300 mg DHM (without DHM: severe symptoms)
  alcohol-induced symptoms: no reduction of symptoms
9 drinks, 750 mg DHM (without DHM: severe symptoms)
  alcohol-induced symptoms: reduction to moderate symptoms
9 drinks, 1200 mg DHM (without DHM: severe symptoms)
  alcohol-induced symptoms: reduction to mild symptoms
9 drinks, 1500 mg DHM (without DHM: severe symptoms)
  alcohol-induced symptoms: reduction to very mild symptoms
9 drinks, 1850 mg DHM (without DHM: severe symptoms)
  alcohol-induced symptoms: reduction of all symptoms with the sole exception of fatigue
12 and 15 drinks, all DHM doses tested
  elimination of all symptoms: no dose of DHM, as tested, eliminated all symptoms
12 drinks, 750 mg DHM (without DHM: severe symptoms)
  alcohol-induced symptoms: no reduction of symptoms
12 drinks, 1200 mg DHM (without DHM: severe symptoms)
  alcohol-induced symptoms: no reduction of symptoms
12 drinks, 1500 mg DHM (without DHM: severe symptoms)
  alcohol-induced symptoms: reduction to moderate symptoms
12 drinks, 1850 mg DHM (1500 mg gave moderate symptoms)
  alcohol-induced symptoms: no further reduction in symptoms
12 drinks, 2400 mg DHM (1500 mg gave moderate symptoms)
  alcohol-induced symptoms: no further reduction in symptoms
15 drinks, 1500 mg DHM (without DHM: very severe symptoms)
  alcohol-induced symptoms: no reduction of symptoms
15 drinks, 1850 mg DHM (without DHM: very severe symptoms)
  alcohol-induced symptoms: reduction to severe symptoms
15 drinks, 2400 mg DHM (1850 mg gave severe symptoms)
  alcohol-induced symptoms: no further reduction of symptoms
15 drinks, 3600 mg DHM (1850 mg gave severe symptoms)
  alcohol-induced symptoms: no further reduction of symptoms
18 drinks, 1850 mg DHM (without DHM: very severe symptoms)
  alcohol-induced symptoms: no reduction of symptoms
18 drinks, 2400 mg DHM (without DHM: very severe symptoms)
  alcohol-induced symptoms: no reduction of symptoms
18 drinks, 3600 mg DHM (without DHM: very severe symptoms)
  alcohol-induced symptoms: no reduction of symptoms
18 drinks, 5000 mg DHM (without DHM: very severe symptoms)
  alcohol-induced symptoms: no reduction of symptoms
[1]
  dosage above which no additional benefits were seen: about 1850 mg
  dosage at which benefits on hangover symptoms begin: about 300 mg

From patent publication US20250073201A1, “COMPOSITIONS AND METHODS FOR TREATING ACUTE ALCOHOL INTAKE” (NEXT LEVEL HEALTH SCIENCES INC, priority 2021, published 2025)
